According to patent US6573218B1, “Fused-benzene derivatives useful as herbicides” (Ishihara Sangyo Kaisha, Ltd., priority 1998, dated 2003):

Assays:
Type in all cases: in vivo
[1] = system: redroot pigweed (Amaranthus retroflexus, AMARE); assay: Pre-emerge greenhouse herbicide test; settings: 250 g ai/ha, 14 days after application, scale 0-100 (0 no damage, 100 complete death)
Description: (§1) A standard greenhouse herbicide activity screening system was used to evaluate the herbicidal efficacy and crop safety of these test compounds. Seven broadleaf weed species including redroot pigweed (Amaranthus retroflexus, AMARE), velvetleaf (Abutilon theophrasti, ABUTH), sicklepod (Cassia obtusifolia, CASOB), ivyleaf morningglory (Ipomoea hederacea, IPOHE), lambsquarters (Chenopodium album, CHEAL), common ragweed (Ambrosia artemisiifolia L., AMBEL), and cocklebur (Xanthium strumarium, XANST) were used as test species. Four grass weed species including green foxtail (Setaria viridis, SETVI), barnyardgrass (Echinochloa crus-galli, ECHCG), johnsongrass (Sorghum halepense, SORHA), and large crabgrass (Digitaria sanguinalis, DIGSA) were also used. In addition, three crop species, field corn (Zea mays L., var. Dekalb 527, CORN), soybean (Glycine max L., var. Pella 86, SOY), and upland rice (Ory0a sp., var.Tebonnet, RICE) were included.
(§2) All plants were grown in 10 cm square plastic pots which were filled with a sandy loam soil mix. For pre-emerge tests, seeds were planted one day prior to application of the test compounds. For post-emerge tests, seeds were planted 8-21 days prior to the test to allow emergence and good foliage development prior to application of the test substances. At the time of the post-emerge application, plants of all species were usually at the 2-3 leaf stage of development.
(§3) All test compounds were dissolved in acetone and applied to the test units in a volume of 187 l/ha. Test materials were applied at rates ranging from 15 g ai/ha to 1000 g ai/ha using a track sprayer equipped with a TJ8001E even flow flat fan spray nozzle. Plants were arranged on a shelf so that the top of the canopy (post-emerge) or top of the soil surface (pre-emerge) was 40-45 cm below the nozzle. Pressurized air was used to force the test solution through the nozzle as it was mechanically advanced over the top of all test plants/pots. This application simulates a typical commercial field herbicide application.
(§4) In the post-emerge test, a commercial non-ionic surfactant was also included (0.25% v/v) to enhance wetting of the leaf surfaces of target plants. Immediately after application, test units of the pre-emerge applications were watered at the soil surface to incorporate the test materials.
(§5) At 14 days after application of the test materials, phytotoxicity ratings were recorded. A rating scale of 0-100 was used as previously described in Research Methods in Weed Science, 2nd edition, B. Truelove, Ed., Southern Weed Science Society, Auburn University, Auburn, Ala., 1977. Briefly, “0” corresponds to no damage and “100” corresponds to complete death of all plants in the test unit. This scale was used both to determine efficacy against weed species and damage to crop species. Herbicide activity data for various compounds of this invention, which are shown by compound No. in Tables 1-14, are shown in Tables 16 and 17.

[2] = system: lambsquarters (Chenopodium album, CHEAL); assay: Pre-emerge greenhouse herbicide test; settings: 250 g ai/ha, 14 days after application, scale 0-100 (0 no damage, 100 complete death)
Description: as §1, §2, §3, §4, §5

[3] = system: sicklepod (Cassia obtusifolia, CASOB); assay: Pre-emerge greenhouse herbicide test; settings: 250 g ai/ha, 14 days after application, scale 0-100 (0 no damage, 100 complete death)
Description: as §1, §2, §3, §4, §5

[4] = system: large crabgrass (Digitaria sanguinalis, DIGSA); assay: Pre-emerge greenhouse herbicide test; settings: 250 g ai/ha, 14 days after application, scale 0-100 (0 no damage, 100 complete death)
Description: as §1, §2, §3, §4, §5

[5] = system: johnsongrass (Sorghum halepense, SORHA); assay: Pre-emerge greenhouse herbicide test; settings: 250 g ai/ha, 14 days after application, scale 0-100 (0 no damage, 100 complete death)
Description: as §1, §2, §3, §4, §5

[6] = system: green foxtail (Setaria viridis, SETVI); assay: Pre-emerge greenhouse herbicide test; settings: 250 g ai/ha, 14 days after application, scale 0-100 (0 no damage, 100 complete death)
Description: as §1, §2, §3, §4, §5

[7] = system: barnyardgrass (Echinochloa crus-galli, ECHCG); assay: Pre-emerge greenhouse herbicide test; settings: 250 g ai/ha, 14 days after application, scale 0-100 (0 no damage, 100 complete death)
Description: as §1, §2, §3, §4, §5

[8] = system: ivyleaf morningglory (Ipomoea hederacea, IPOHE); assay: Pre-emerge greenhouse herbicide test; settings: 250 g ai/ha, 14 days after application, scale 0-100 (0 no damage, 100 complete death)
Description: as §1, §2, §3, §4, §5

[9] = system: velvetleaf (Abutilon theophrasti, ABUTH); assay: Pre-emerge greenhouse herbicide test; settings: 250 g ai/ha, 14 days after application, scale 0-100 (0 no damage, 100 complete death)
Description: as §1, §2, §3, §4, §5

[10] = system: redroot pigweed (Amaranthus retroflexus, AMARE); assay: Post-emerge greenhouse herbicide test; settings: 250 g ai/ha, 14 days after application
Description: as §1, §2, §3, §4, §5

[11] = system: lambsquarters (Chenopodium album, CHEAL); assay: Post-emerge greenhouse herbicide test; settings: 250 g ai/ha, 14 days after application
Description: as §1, §2, §3, §4, §5

[12] = system: sicklepod (Cassia obtusifolia, CASOB); assay: Post-emerge greenhouse herbicide test; settings: 250 g ai/ha, 14 days after application
Description: as §1, §2, §3, §4, §5

[13] = system: large crabgrass (Digitaria sanguinalis, DIGSA); assay: Post-emerge greenhouse herbicide test; settings: 250 g ai/ha, 14 days after application
Description: as §1, §2, §3, §4, §5

[14] = system: johnsongrass (Sorghum halepense, SORHA); assay: Post-emerge greenhouse herbicide test; settings: 250 g ai/ha, 14 days after application
Description: as §1, §2, §3, §4, §5

[15] = system: green foxtail (Setaria viridis, SETVI); assay: Post-emerge greenhouse herbicide test; settings: 250 g ai/ha, 14 days after application
Description: as §1, §2, §3, §4, §5

[16] = system: barnyardgrass (Echinochloa crus-galli, ECHCG); assay: Post-emerge greenhouse herbicide test; settings: 250 g ai/ha, 14 days after application
Description: as §1, §2, §3, §4, §5

[17] = system: ivyleaf morningglory (Ipomoea hederacea, IPOHE); assay: Post-emerge greenhouse herbicide test; settings: 250 g ai/ha, 14 days after application
Description: as §1, §2, §3, §4, §5

[18] = system: velvetleaf (Abutilon theophrasti, ABUTH); assay: Post-emerge greenhouse herbicide test; settings: 250 g ai/ha, 14 days after application
Description: as §1, §2, §3, §4, §5

[19] = system: soybean (Glycine max L., var. Pella 86, SOY); assay: Post-emerge greenhouse crop damage test; settings: 250 g ai/ha, post-emerge, 14 days after application
Description: as §1, §2, §3, §4, §5

[20] = system: field corn (Zea mays L., var. Dekalb 527, CORN); assay: Post-emerge greenhouse crop damage test; settings: 250 g ai/ha, post-emerge, 14 days after application
Description: as §1, §2, §3, §4, §5

[21] = system: upland rice (Ory0a sp., var.Tebonnet, RICE); assay: Post-emerge greenhouse crop damage test; settings: 250 g ai/ha, post-emerge, 14 days after application
Description: as §1, §2, §3, §4, §5

[22] = system: soybean (Glycine max L., var. Pella 86, SOY); assay: Pre-emerge greenhouse crop damage test; settings: pre-emerge, 250 g ai/ha, 14 days after application, scale 0-100 (0 no damage, 100 complete death)
Description: as §1, §2, §3, §4, §5

[23] = system: field corn (Zea mays L., var. Dekalb 527, CORN); assay: Pre-emerge greenhouse crop damage test; settings: pre-emerge, 250 g ai/ha, 14 days after application, scale 0-100 (0 no damage, 100 complete death)
Description: as §1, §2, §3, §4, §5

[24] = system: upland rice (Ory0a sp., var.Tebonnet, RICE); assay: Pre-emerge greenhouse crop damage test; settings: in vivo
Description: as §1, §2, §3, §4, §5

SMILES	Pre-emerge Herbicidal Activity AMARE (phytotoxicity rating) [1]	Pre-emerge Herbicidal Activity CHEAL (phytotoxicity rating) [2]	Pre-emerge Herbicidal Activity CASOB (phytotoxicity rating) [3]	Pre-emerge Herbicidal Activity DIGSA (phytotoxicity rating) [4]	Pre-emerge Herbicidal Activity SORHA (phytotoxicity rating) [5]	Pre-emerge Herbicidal Activity SETVI (phytotoxicity rating) [6]	Pre-emerge Herbicidal Activity ECHCG (phytotoxicity rating) [7]	Pre-emerge Herbicidal Activity IPOHE (phytotoxicity rating) [8]	Pre-emerge Herbicidal Activity ABUTH (phytotoxicity rating) [9]	Post-emerge Herbicidal Activity AMARE (phytotoxicity rating 0-100) [10]	Post-emerge Herbicidal Activity CHEAL (phytotoxicity rating 0-100) [11]	Post-emerge Herbicidal Activity CASOB (phytotoxicity rating 0-100) [12]	Post-emerge Herbicidal Activity DIGSA (phytotoxicity rating 0-100) [13]	Post-emerge Herbicidal Activity SORHA (phytotoxicity rating 0-100) [14]	Post-emerge Herbicidal Activity SETVI (phytotoxicity rating 0-100) [15]	Post-emerge Herbicidal Activity ECHCG (phytotoxicity rating 0-100) [16]	Post-emerge Herbicidal Activity IPOHE (phytotoxicity rating 0-100) [17]	Post-emerge Herbicidal Activity ABUTH (phytotoxicity rating 0-100) [18]	Post-emerge crop damage SOY (phytotoxicity rating 0-100) [19]	Post-emerge crop damage CORN (phytotoxicity rating 0-100) [20]	other results
CCOC(=O)c1nc2c(-n3c(=O)cc(C(F)(F)F)n(C)c3=O)c(F)cc(Cl)c2oc1=O [Compound 3-5]	50	70	0	0	0	0	0	0	65	20	0	0	0	0	10	0	0	60	0	0	Post-emerge crop damage RICE (phytotoxicity rating 0-100) [21]: 0; Pre-emerge Herbicidal Activity SOY (crop damage rating) [22]: 0; Pre-emerge Herbicidal Activity CORN (crop damage rating) [23]: 0; Pre-emerge Herbicidal Activity RICE (crop damage rating) [24]: 0
Cn1c(C(F)(F)F)cc(=O)n(-c2c(F)cc(Cl)c3c2NC(=O)CO3)c1=O [Compound 4-1]	100	100	100	100	95	100	70	100	100	100	100	80	30	40	10	30	100	100	100	70	Post-emerge crop damage RICE (phytotoxicity rating 0-100) [21]: 65; Pre-emerge Herbicidal Activity SOY (crop damage rating) [22]: 100; Pre-emerge Herbicidal Activity CORN (crop damage rating) [23]: 90; Pre-emerge Herbicidal Activity RICE (crop damage rating) [24]: 90
